This is an account of results in patent US9101638B2, “Boronic acid derivatives and therapeutic uses thereof” (Rempex Pharmaceuticals, Inc., priority 2013, dated 2015).

Where two headings read alike, the source gives them in different places.

One experiment deals with ECL1002. The experiment in a line: Potentiation of aztreonam, strain ECL1002. To be noted: minimum BLI concentration inhibiting growth with 4 μg/mL aztreonam. Type of experiment: cell-based.
Experiment [1] relates to ec308 (SHV-5). Briefly: Potentiation of aztreonam, strain ec308. Type of experiment: cell-based. To be noted: minimum BLI concentration inhibiting growth with 4 μg/mL aztreonam.
Another experiment concerns KP1005 (CTX-M-14). Briefly: Potentiation of aztreonam, strain KP1005. Type of experiment: cell-based.
The target of a further experiment is KPC-2 (Klebsiella pneumoniae, UniProt Q9F663). The experiment in a line: Inhibition of nitrocefin cleavage by purified KPC-2. To be noted: nitrocefin reporter substrate, purified enzyme; read-out: Ki (KPC-2, NCF). Format: biochemical. As for the experimental part:
(§1) Purified enzymes were mixed with various concentrations of inhibitors in reaction buffer and incubated for 10 min at room temperature. Nitrocefin was added and substrate cleavage profiles were recorded at 490 nm every 10 sec for 10 min.

For the next experiment, the system named is KP1004 (K-2). Briefly: Potentiation of aztreonam, strain KP1004. Type of experiment: cell-based. Conditions: minimum BLI concentration inhibiting growth with 4 μg/mL aztreonam.
The subject of experiment [2] is ec302 (TEM-10). Briefly: Potentiation of aztreonam, strain ec302. Type of experiment: cell-based.
Experiment [3] relates to ec302 (TEM-10). Briefly: Potentiation of tigemonam, strain ec302. Format: cell-based.
For another experiment, the target named is SHV-12 (Klebsiella pneumoniae, UniProt P0AD64, E235K/G234S/L31Q). Briefly: Inhibition of nitrocefin cleavage by purified SHV-12. To be noted: nitrocefin reporter substrate, purified enzyme; read-out: Ki (SHV-12, NCF). Type of experiment: biochemical. On the procedure:
as §1

Experiment [4] deals with EC1010 (CMY-6). Format: cell-based.
Experiment [5] relates to EC1010 (CMY-6). The experiment in a line: Potentiation of aztreonam, strain EC1010. Format: cell-based.
Another experiment has as its system PAM1154/KPC-2. The experiment in a line: Biapenem potentiation in PAM1154/KPC-2 (MexAB-OprM lacking). Format: cell-based, Pseudomonas aeruginosa. On the procedure:
(§2) Efflux of BLIs from Pseudomonas aeruginosa by the MexAB-OprM efflux pump was also evaluated. […] Due to expression of KPC-2 both strains became resistant to biapenem. […] Potency of BLIs to potentiate biapenem in these strains was determined. […] The ratio of MPC64 values for each BLI in PAM1032/KPC-2 (efflux proficient) and PAM1154/KPC-2 (efflux deficient) was determined to generate the Efflux Index (EI).

A further experiment concerns PAM1032/KPC-2. The experiment in a line: Biapenem potentiation in PAM1032/KPC-2 (MexAB-OprM overexpressed). Type of experiment: cell-based, Pseudomonas aeruginosa. As for the experimental part:
as §2

Experiment [6] concerns KP1009 (CTX-M-15). The experiment in a line: Potentiation of tigemonam, strain KP1009. To be noted: minimum BLI concentration inhibiting growth with 4 μg/mL tigemonam.
Experiment [7] deals with ec308 (SHV-5). Briefly: Potentiation of tigemonam, strain ec308. Format: cell-based. To be noted: minimum BLI concentration inhibiting growth with 4 μg/mL tigemonam.
Experiment [8] concerns KP1009 (CTX-M-15). The experiment in a line: Potentiation of aztreonam, strain KP1009. Type of experiment: cell-based.
Another experiment has as its target CTX-M-14 (Escherichia coli, UniProt Q9L5C7). The experiment in a line: Inhibition of nitrocefin cleavage by purified CTX-M-14. Conditions: nitrocefin reporter substrate, purified enzyme; read-out: Ki (CTX-M-14, NCF). Type of experiment: biochemical. On the procedure: as §1

SHV-12, sequence (P0AD64 22-286 L31Q/G234S/E235K): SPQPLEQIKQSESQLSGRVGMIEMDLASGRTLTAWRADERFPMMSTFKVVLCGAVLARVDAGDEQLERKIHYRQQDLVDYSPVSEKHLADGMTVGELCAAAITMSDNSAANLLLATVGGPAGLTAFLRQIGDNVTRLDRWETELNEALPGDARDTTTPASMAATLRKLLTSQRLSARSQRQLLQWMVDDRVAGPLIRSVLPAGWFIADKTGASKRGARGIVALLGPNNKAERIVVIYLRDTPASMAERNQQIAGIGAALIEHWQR
CTX-M-14, sequence (Q9L5C7 entry or part of it): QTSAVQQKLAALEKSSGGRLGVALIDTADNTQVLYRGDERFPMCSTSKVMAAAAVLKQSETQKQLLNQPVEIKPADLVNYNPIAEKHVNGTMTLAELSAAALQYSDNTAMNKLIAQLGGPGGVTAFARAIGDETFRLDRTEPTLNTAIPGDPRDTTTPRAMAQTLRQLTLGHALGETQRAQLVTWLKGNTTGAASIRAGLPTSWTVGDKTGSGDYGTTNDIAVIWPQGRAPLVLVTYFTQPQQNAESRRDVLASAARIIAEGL
KPC-2, sequence (Q9F663 25-293, looked up, species assumed): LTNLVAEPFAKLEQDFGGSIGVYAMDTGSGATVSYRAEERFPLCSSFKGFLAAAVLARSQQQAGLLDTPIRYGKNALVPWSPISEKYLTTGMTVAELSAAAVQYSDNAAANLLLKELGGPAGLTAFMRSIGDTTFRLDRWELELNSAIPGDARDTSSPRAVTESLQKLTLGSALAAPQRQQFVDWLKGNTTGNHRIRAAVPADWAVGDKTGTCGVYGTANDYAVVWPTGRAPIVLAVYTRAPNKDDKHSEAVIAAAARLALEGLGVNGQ

In general, Ki refers to the dissociation constant of the complex between target and ligand, obtained from inhibition or displacement. Regarding `O=C(N[C@H]1Cc2cccc(C(=O)O)c2OB1O)c1cncnc1` [Compound 18, (R)-2-hydroxy-3-(pyrimidine-5-carboxamido)-3,4-dihydro-2H-benzo[e][1,2]oxaborinine-8-carboxylic acid], in the experiment with ECL1002, the “AZT MPC4 ECL1002” value is reported as “Y (Y = MIC of 1 μg/mL to 10 μg/mL)”. Moreover, the “AZT MPC4 SHV-5 ec308” value in the experiment on ec308 (SHV-5) [1] is reported as “Y (Y = MIC of 1 μg/mL to 10 μg/mL)”. In addition, the “AZT MPC4 CTX-M-14 KP1005” value in the experiment on KP1005 (CTX-M-14) was “Y (key: X = MIC of less than 1 μg/mL; Y = MIC of 1 μg/mL to 10 μg/mL; Z = MIC of greater than 10 μg/mL)”. The Ki on KPC-2 is more than 10 nM; at SHV-12, less than 1 nM. Further, in the experiment on KP1004 (K-2), the “AZT MPC4 K-2 KP1004” value is reported as “Y (Y = MIC of 1 μg/mL to 10 μg/mL)”. Besides, the “AZT MPC4 TEM-10 ec302” value with ec302 (TEM-10) [2] is reported as “X (key: X = MIC of less than 1 μg/mL; Y = MIC of 1 μg/mL to 10 μg/mL; Z = MIC of greater than 10 μg/mL)”. Further, the “TIG MPC4 TEM-10 ec302” value with ec302 (TEM-10) [3] is “Y (key: X = MIC of less than 1 μg/mL; Y = MIC of 1 μg/mL to 10 μg/mL; Z = MIC of greater than 10 μg/mL)”. Besides, in the experiment on EC1010 (CMY-6) [4], the “TIG MPC4 CMY-6 EC1010” value is on record as “X (key: X = MIC of less than 1 μg/mL; Y = MIC of 1 μg/mL to 10 μg/mL; Z = MIC of greater than 10 μg/mL)”. In addition, the “AZT MPC4 CMY-6 EC1010” value with EC1010 (CMY-6) [5] is listed as “Y (key: X = MIC of less than 1 μg/mL; Y = MIC of 1 μg/mL to 10 μg/mL; Z = MIC of greater than 10 μg/mL)”. For the same molecule, the “PAM1154/KPC-2 Biapenem MPC64” value in the experiment with PAM1154/KPC-2 is on record as “X (key: X = Less than 10; Y = 10 to 40; Z Greater than 40)”. Besides, the “PAM1032/KPC-2 Biapenem MPC64” value with PAM1032/KPC-2 (BLI potency to decrease biapenem MIC 64-fold, 32 to 0.5 μg/ml, efflux proficient strain) was “Z (Z Greater than 40)”. The “TIG MPC4 CTX-M-15 KP1009” value in the experiment with KP1009 (CTX-M-15) [6] is “Y (Y = MIC of 1 μg/mL to 10 μg/mL)”. The “TIG MPC4 SHV-5 ec308” value in the experiment with ec308 (SHV-5) [7] is given as “Y (Y = MIC of 1 μg/mL to 10 μg/mL)”. The “AZT MPC4 CTX-M-15 KP1009” value in the experiment with KP1009 (CTX-M-15) [8] is reported as “Y (key: X = MIC of less than 1 μg/mL; Y = MIC of 1 μg/mL to 10 μg/mL; Z = MIC of greater than 10 μg/mL)”.

`NC(=O)N[C@H]1Cc2cccc(C(=O)O)c2OB1O` [Compound 6, (R)-2-hydroxy-3-ureido-3,4-dihydro-2H-benzo[e][1,2]oxaborinine-8-carboxylic acid]: the “AZT MPC4 ECL1002” value in the experiment with ECL1002 is on record as “Z (Z = MIC of greater than 10 μg/mL)”. Also, the “AZT MPC4 SHV-5 ec308” value in the experiment with ec308 (SHV-5) [1] is given as “Y (Y = MIC of 1 μg/mL to 10 μg/mL)”. The Ki on CTX-M-14 and at SHV-12 was 1 to 10 nM in each case. Further, the “AZT MPC4 CTX-M-14 KP1005” value in the experiment with KP1005 (CTX-M-14) was “Y (key: X = MIC of less than 1 μg/mL; Y = MIC of 1 μg/mL to 10 μg/mL; Z = MIC of greater than 10 μg/mL)”. Further, the “AZT MPC4 K-2 KP1004” value in the experiment with KP1004 (K-2) is “X (X = MIC of less than 1 μg/mL)”. In the experiment on ec302 (TEM-10) [2], the “AZT MPC4 TEM-10 ec302” value is given as “Z (key: X = MIC of less than 1 μg/mL; Y = MIC of 1 μg/mL to 10 μg/mL; Z = MIC of greater than 10 μg/mL)”. Moreover, the “TIG MPC4 TEM-10 ec302” value in the experiment with ec302 (TEM-10) [3] is “Z (key: X = MIC of less than 1 μg/mL; Y = MIC of 1 μg/mL to 10 μg/mL; Z = MIC of greater than 10 μg/mL)”. Besides, the “TIG MPC4 CMY-6 EC1010” value in the experiment on EC1010 (CMY-6) [4] is given as “X (key: X = MIC of less than 1 μg/mL; Y = MIC of 1 μg/mL to 10 μg/mL; Z = MIC of greater than 10 μg/mL)”. The “AZT MPC4 CMY-6 EC1010” value in the experiment on EC1010 (CMY-6) [5] is reported as “Y (key: X = MIC of less than 1 μg/mL; Y = MIC of 1 μg/mL to 10 μg/mL; Z = MIC of greater than 10 μg/mL)”. Further, the “PAM1154/KPC-2 Biapenem MPC64” value in the experiment with PAM1154/KPC-2 is reported as “X (key: X = Less than 10; Y = 10 to 40; Z Greater than 40)”. Moreover, the “PAM1032/KPC-2 Biapenem MPC64” value with PAM1032/KPC-2 was “X (key: X = Less than 10; Y = 10 to 40; Z Greater than 40)”. Besides, in the experiment with KP1009 (CTX-M-15) [6], the “TIG MPC4 CTX-M-15 KP1009” value is recorded as “Y (Y = MIC of 1 μg/mL to 10 μg/mL)”. The “TIG MPC4 SHV-5 ec308” value in the experiment on ec308 (SHV-5) [7] is reported as “Z (Z = MIC of greater than 10 μg/mL)”. For the same molecule, the “AZT MPC4 CTX-M-15 KP1009” value with KP1009 (CTX-M-15) [8] is on record as “Y (key: X = MIC of less than 1 μg/mL; Y = MIC of 1 μg/mL to 10 μg/mL; Z = MIC of greater than 10 μg/mL)”.
